From patent US9987247B2, “Drugs for treating diseases of cervical and/or lumbar vertebrae” (priority 2013, dated 2018)

Experiments:
lumbar disc herniation = test: Treatment of patients with lumbar disc herniation with oral benzbromarone (case reports); format: in vivo, human
[1] = test system: cervical disc herniation / cervical disease; test: Treatment of patients with cervical disc herniation / cervical disease with oral benzbromarone (case reports); format: in vivo, human
From the text: The clinical effect criteria of the drug of the present application for treating cervical spondylosis can also be evaluated 2 weeks after treatment.

[2] = Patient A, 100 mg first day then 50 mg once a day, after five days
[3] = Patient A, 100 mg first day then 50 mg once a day, after two days
[4] = Patient B, 50 mg once a day, after seven days
[5] = Patient C, 12.5 mg once a day, after continuous administration for six days
[6] = Patient H, 100 mg once a day plus sodium bicarbonate, after six days
[7] = Patient L, 100 mg once a day plus sodium bicarbonate, after seven days

CCc1oc2ccccc2c1C(=O)c1cc(Br)c(O)c(Br)c1 [benzbromarone]
painful symptoms (lumbar disc herniation; Patient A, about 75 kg, once a day, 100 mg first day then 50 mg, after one day): lessened | pain (lumbar disc herniation; [2]): basically disappeared | walking (lumbar disc herniation; [2]): could walk properly | ability to walk (lumbar disc herniation; [3]): able to walk | painful symptoms (lumbar disc herniation; [3]): alleviated obviously | recurrence of symptoms (lumbar disc herniation; Patient A, within the next six months): haven't occurred | painful symptoms (lumbar disc herniation; Patient B, about 60 kg, 50 mg once a day, waist massage first two days, after two days): alleviated obviously | ability to walk and work (lumbar disc herniation; [4]): able to walk and work | pain during severe coughing (lumbar disc herniation; [4]): no perceptible pain | waist pain (lumbar disc herniation; [4]): basically disappeared | recurrence (lumbar disc herniation; Patient B, within the next three months): no recurrence | pain (lumbar disc herniation; Patient C, 12.5 mg once a day, waist massage first two days, six days later): significantly lessened | symptoms of pain (lumbar disc herniation; [5]): disappeared | walking and ability to work (lumbar disc herniation; [5]): walked properly and was able to work | Straight leg raising test (lumbar disc herniation; Patient C, 12.5 mg once a day, after continuous administration for six days, positive before treatment): negative | recurrence (lumbar disc herniation; Patient C, within the next two months): no recurrence | pain (lumbar disc herniation; Patient D, L4/5 protrusion, 50 mg once a day, no other treatment, three days later): significantly lessened | walking, ability to work, pain (lumbar disc herniation; Patient D, 50 mg once a day, after six days): walked properly and was able to work without pain | Straight leg raising test (lumbar disc herniation; Patient D, 50 mg once a day, after six days, positive before treatment): negative | recurrence (lumbar disc herniation; Patient D, within the next three months): no recurrence | pain (lumbar disc herniation; Patient F, about 25 mg once a day, waist massage first three days, three days later): significantly lessened | walking (lumbar disc herniation; Patient F, about 25 mg once a day, after six days): walked properly | ability to walk (lumbar disc herniation; Patient F, about 25 mg once a day, three days later): able to walk | recurrence (lumbar disc herniation; Patient F, within the next two months): no recurrence | pain (lumbar disc herniation; Patient H, about 62 kg, L3/4 protrusion, 100 mg once a day plus sodium bicarbonate tablets 0.5 g three times a day, two days later): significantly reduced | pain when coughing (lumbar disc herniation; [6]): no pain was felt | waist pain (lumbar disc herniation; [6]): basically disappeared | walking and ability to work (lumbar disc herniation; [6]): could walk normally, and was able to work | Straight leg raising test (lumbar disc herniation; Patient H, 100 mg once a day plus sodium bicarbonate, after six days, positive before treatment): negative | recurrence (lumbar disc herniation; Patient H, within the next three months): No recurrence | pain (lumbar disc herniation; [7]): basically disappeared | walking and work ability (lumbar disc herniation; [7]): normal walking, work ability recovery | Bragard test (lumbar disc herniation; Patient L, 100 mg once a day plus sodium bicarbonate, after seven days, positive before treatment): negative | relapse (lumbar disc herniation; Patient L, during the following two months): no relapse | symptoms in pain, upper limbs numbness and dizziness ([1]; Patient E, cervical intervertebral disc herniation, about 50 mg once a day, no other treatment, six days later): relieved | pain and dizziness symptoms ([1]; Patient G, cervical disease, about 25 mg once a day, neck massage first three days, eight days later): disappeared | Fenz signs ([1]; Patient G, about 25 mg once a day, eight days later, positive before treatment): negative | dizziness symptoms ([1]; Patient I, about 55 kg, cervical disc herniation, capsules 50 mg twice a day plus sodium bicarbonate tablets 0.5 g three times a day, after three days): reduced significantly | pain and dizziness symptoms ([1]; Patient I, capsules 50 mg twice a day plus sodium bicarbonate, after eight days): disappeared | flexion neck rotation test ([1]; Patient I, capsules 50 mg twice a day plus sodium bicarbonate, after eight days, positive before treatment): negative | recurrence ([1]; Patient I, within the next one months): no recurrence
